Measurements taken from publication PMC9721423, “Novel benzo chromene derivatives: design, synthesis, molecular docking, cell cycle arrest, and apoptosis induction in human acute myeloid leukemia HL-60 cells” (Journal of Enzyme Inhibition and Medicinal Chemistry, 2022).
Read-outs that look alike come from different tables or passages of the source.

What was measured:
[1] = test system: K-562; assay: cells; parameters: species or system NCI-60 human tumour cell lines; NCI-60 five-dose growth inhibition screen, sulforhodamine B protein stain; conditions: Homo sapiens, K562, 48 h
Method in brief: (§1)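 NCI60 protocol: compounds (DMSO:glycerol stocks) tested at a single concentration of 10^−5 M for 48 h, growth read by sulforhodamine B protein staining as percent growth. For selected compounds, dose–response curves gave GI50, TGI and LC50; selectivity taken as full-panel MG-MID divided by subpanel MG-MID.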

[2] = test system: SNB-75; assay: cells; parameters: species or system NCI-60 human tumour cell lines; NCI-60 five-dose growth inhibition screen, sulforhodamine B protein stain; conditions: Homo sapiens, SNB-75, 48 h
Method in brief: as §1

[3] = test system: CCRF-CEM; assay: cells; parameters: species or system NCI-60 human tumour cell lines; NCI-60 five-dose growth inhibition screen, sulforhodamine B protein stain; conditions: Homo sapiens, CCRF-CEM, 48 h
Method in brief: as §1

[4] = test system: OVCAR-5; assay: cells; parameters: species or system NCI-60 human tumour cell lines; NCI-60 five-dose growth inhibition screen, sulforhodamine B protein stain; conditions: Homo sapiens, OVCAR-5, 48 h
Method in brief: as §1

[5] = biological target: T1, CDK-2 (Homo sapiens, UniProt P24941); assay: Kinase-Glo MAX luminescence kinase assay, CDK-2/cyclin A2 kit; format: biochemical; conditions: read-out: CDK-2/ cyclin A2 IC50 (μM) ± SD
T1 construct: gene CDK2; with cyclin A2

[6] = test system: UACC-257; assay: cells; parameters: species or system NCI-60 human tumour cell lines; NCI-60 five-dose growth inhibition screen, sulforhodamine B protein stain; conditions: Homo sapiens, UACC-257, 48 h; read-out: GI50 5a
Method in brief: as §1

[7] = test system: OVCAR-4; assay: cells; parameters: species or system NCI-60 human tumour cell lines; NCI-60 five-dose growth inhibition screen, sulforhodamine B protein stain; conditions: Homo sapiens, OVCAR-4, 48 h; read-out: GI50 5a
Method in brief: as §1

[8] = test system: TK-10; assay: cells; parameters: species or system NCI-60 human tumour cell lines; NCI-60 five-dose growth inhibition screen, sulforhodamine B protein stain; conditions: Homo sapiens, TK-10, 48 h; read-out: GI50 5a
Method in brief: as §1

[9] = test system: UO-31; assay: cells; parameters: species or system NCI-60 human tumour cell lines; NCI-60 five-dose growth inhibition screen, sulforhodamine B protein stain; conditions: Homo sapiens, UO-31, 48 h; read-out: GI50 5a
Method in brief: as §1

`CC(=O)NC1=C(C#N)C(c2ccccc2)c2ccc3ccccc3c2O1` (centres unmarked) [6a, N-(3-Cyano-4-phenyl-4H-benzo[h]chromen-2-yl)acetamide] showed a GI50 ([1]; read-out: GI50 6a) of 320 nM, a GI50 ([2]; read-out: GI50 6a) of 240 nM and a GI50 ([3]; read-out: GI50 6a) of 390 nM. It also gave a GI50 ([4]; read-out: GI50 6a) of 2100 nM and an IC50 [5] of 0.301 µM.
`N=C(NO)C1=C(N)Oc2c(ccc3ccccc23)C1c1ccccc1` (centres unmarked) [5a, 2-Amino-4-phenyl-N-hydroxy-4H-benzo[h]chromene-3-carboxamidine] was tested, and the GI50 [6] was 18100 nM, the GI50 ([1]; read-out: GI50 5a) was 60 nM and the GI50 ([2]; read-out: GI50 5a) was 80 nM. It also gave a GI50 ([3]; read-out: GI50 5a) of 380 nM, a GI50 [4] of 610 nM and a GI50 [7] of 760 nM. For the same compound, the GI50 [8] was 16800 nM, the GI50 [9] was 440 nM and the IC50 [5] was 0.171 µM.
